Source: patent publication US12091699B2, “Method for enhancing production of homeoprotein using inhibitor of lysosomal function” (Korea Advanced Institute of Science and Technology, priority 2021, dated 2024)

What was measured:
Format in all cases: cell-based, human
[1] = tested on: HeLa cell line that continuously produces the Otx2 homeoprotein; assay: Immunocytochemical staining of intracellular Otx2 protein after treatment with inhibitor of lysosomal function; settings: HeLa cells, treated 16 hours, FIG. 2A, vehicle: almost exclusively in cell nucleus
Procedure: Cells were cultured on a cover glass in a cell incubator for 24 hours or more, and treated with a fixing solution (physiological saline including 4% paraformaldehyde) at room temperature for 20 minutes to fix the cells. Next, after the cells were treated with a permeability-imparting solution (physiological saline including 0.1% TWEEN-20 (polysorbate 20)) at room temperature for 10 minutes, the cells were treated with a blocking solution (physiological saline including 10% donkey serum) at room temperature for 1 hour. Subsequently, the cells were treated with a blocking solution including a primary antibody, cultured at 4° C. for 16 hours, then treated with a blocking solution 10 including a fluorophore-conjugated secondary antibody, and cultured at room temperature for 1 hour. Then, the fluorescence signals of the cells were analyzed under an Olympus FV1000 confocal microscope.
(§1) Accordingly, the present inventors treated a HeLa cell line that continuously produces the Otx2 homeoprotein manufactured in Example 2 with a V-ATPase inhibitor and a lysosomal pH enhancer as inhibitors of lysosomal function, and confirmed a change in secretion of the homeoprotein. The V-ATPase inhibitor is a lysosomal ion channel inhibitor, and when cells are treated with the inhibitor, the pH in the lysosome is increased, so the protein degradation by the lysosome may be suppressed because the activity of the hydrolase present in the lysosome is inhibited.
Thus, specifically, after the HeLa cells were treated with each of V-ATPase inhibitors bafilomycin A1 (BafA1) and concanamycin A (ConA), and a lysosomal pH enhancer chloroquine (CQ) at different concentrations for 16 hours, the intracellular expression of the Otx2 protein was observed by immunocytochemical staining.

[2] = tested on: HeLa cell line that continuously produces the Otx2 homeoprotein; assay: Dot blot analysis of Otx2 protein secreted into cell culture solution; settings: FIG. 2C
Procedure: In order to detect a homeoprotein secreted to the outside of the cell, a cell culture solution including sodium heparin was allowed to pass through a polyvinylidene difluoride (PVDF) membrane. Next, the membrane was treated with a blocking solution (TBST including 5% skim milk) and allowed to react at room temperature for 1 hour. Subsequently, the membrane was treated with a blocking solution including a primary antibody, allowed to react at 4° C. for 16 hours, then treated with a horseradish peroxidase (HRP)-conjugated secondary antibody, and cultured at room temperature for 1 hour, and then the membrane was exposed to an X-ray photosensitive film by inducing an enzymatic reaction using an ECL solution as a substrate to thereby analyze the results.
as §1
(§2) Furthermore, the level of secreted Otx2 protein and the intracellular expression level of Otx2 protein when the HeLa cells were treated with the inhibitor of lysosomal function were analyzed by a dot blot analysis and a western blot analysis.
(§3) In addition, the present inventors treated the HeLa cells with bafilomycin D (BafD) together with bafilomycin A1 (BafA1) and concanamycin A (ConA), which are types of V-ATPase inhibitors, at different concentrations, and performed an analysis in the same manner as in FIG. 2B.

[3] = tested on: HeLa cell line that continuously produces the Otx2 homeoprotein; assay: Western blot analysis of Otx2 protein in cell lysate; settings: for expression level of the Otx2 protein in cell lysate: HeLa cells, western blot V5 (Otx2), FIG. 2B; for intracellular expression of the Otx2 protein: FIG. 2C
Procedure: In order to detect a homeoprotein present inside the cell, cells were lysed with a RIPA lysate (tertiary distilled water including 20 mM Tris-HCl, pH 7.5, 150 mM NaCl, 1 mM Na2EDTA, 1 mM EGTA, 1% NP-40, 1% sodium deoxycholate, 2.5 mM sodium pyrophosphate, 1 mM β-glycerophosphate, 1 mM Na3VO4, and 1 μg/ml leupeptin), and then proteins in the cells were separated according to molecular weight by performing electrophoresis (SDS-PAGE) on the cell lysate on a polyacrylamide gel including sodium dodecyl sulfate. The gel was induced to electrically bind to a PVDF membrane after protein separation to transfer the proteins to the membrane.
The V-ATPase inhibitor is a lysosomal ion channel inhibitor, and when cells are treated with the inhibitor, the pH in the lysosome is increased, so the protein degradation by the lysosome may be suppressed because the activity of the hydrolase present in the lysosome is inhibited.
as §2, §3

[4] = concentration increased from 5 nM to 50 nM
[5] = concentration increased from 20 nM to 200 nM

| Molecule | expression pattern (intracellular position) of Otx2 protein [1] | secretion of the Otx2 protein to the outside of the cell [2, 4] | expression level of the Otx2 protein in cell lysate [3] | intracellular expression of the Otx2 protein [3, 4] | secretion of the Otx2 protein to the outside of the cell [2, 5] | intracellular expression of the Otx2 protein [3, 5] |
| --- | --- | --- | --- | --- | --- | --- |
| C/C=C/[C@H]1O[C@@](O)([C@@H](C)[C@H](O)[C@H](C)[C@H]2OC(=O)/C(OC)=C/C(C)=C/[C@@H](C)[C@@H](O)[C@@H](CC)[C@@H](O)[C@H](C)C/C(C)=C/C=C/[C@@H]2OC)C[C@@H](O[C@H]2C[C@@H](O)[C@H](OC(N)=O)[C@@H](C)O2)[C@@H]1C [ConA, concanamycin A] | occurred even in the cytoplasm including the cell nucleus | increased | expressed at a higher level | increased |  |  |
| bafilomycin D [BafD] |  |  |  |  | increased | increased |
| CO/C1=C\C(C)=C\[C@@H](C)[C@@H](O)[C@@H](C)C/C(C)=C/C=C/[C@H](OC)[C@@H]([C@@H](C)[C@@H](O)[C@H](C)[C@@]2(O)C[C@@H](O)[C@H](C)[C@@H](C(C)C)O2)OC1=O [BafA1, bafilomycin A1] | occurred even in the cytoplasm including the cell nucleus |  | a big difference did not appear |  | increased | increased |
| CCN(CC)CCCC(C)Nc1ccnc2cc(Cl)ccc12 (stereo not drawn) [CQ, chloroquine] | occurred even in the cytoplasm including the cell nucleus |  | expressed at a higher level |  |  |  |
